# Literature values, collected in US20070042008A1, “Compositions containing phosphatidylcholine and essential fatty acids” (BodyBio, Inc., priority 2005, published 2007).
# Details: oral
substance,measurement,setting,value
Phosphatidylcholine [PC],blood levels peak (time to peak),,8 to 12 h
same,"absorbed, taken orally","per 24 hrs, taken with meals",up to 90%
